These molecules were tested against GLP-1 Receptor (Homo sapiens, UniProt P43220) (assay: GLP-1R agonist cAMP stimulation assay (HEK293/GLP1R/CRE-LUC cells, HTRF cAMP dynamic 2 kit)). Settings: HEK293/CRE-Luc cell line stably expressing the GLP-1 Receptor; 30 min incubation at 37° C.
Assay type: cell-based
Procedure, shortened: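 HEK293 cells stably expressing GLP-1R with CRE-Luc, 1000 cells/well in DPBS with 0.5 mM IBMX and 0.10% BSA, exposed to half-log compound dilutions for 30 min at 37 °C. cAMP measured by HTRF (665/615 nm) after 1 h at room temperature.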

GLP-1 Receptor, sequence (P43220 24-463): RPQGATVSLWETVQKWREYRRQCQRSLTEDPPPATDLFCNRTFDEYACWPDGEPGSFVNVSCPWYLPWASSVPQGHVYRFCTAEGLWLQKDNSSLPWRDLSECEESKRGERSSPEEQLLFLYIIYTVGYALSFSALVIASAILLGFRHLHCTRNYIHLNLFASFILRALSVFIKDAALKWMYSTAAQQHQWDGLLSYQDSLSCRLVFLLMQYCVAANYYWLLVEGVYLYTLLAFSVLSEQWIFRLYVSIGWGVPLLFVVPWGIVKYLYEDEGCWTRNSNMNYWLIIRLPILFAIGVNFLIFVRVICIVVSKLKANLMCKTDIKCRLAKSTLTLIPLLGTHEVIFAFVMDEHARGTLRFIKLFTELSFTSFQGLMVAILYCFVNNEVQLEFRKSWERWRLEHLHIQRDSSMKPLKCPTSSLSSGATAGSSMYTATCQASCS

Row | SMILES | EC50
1 | Fc1cc(Cl)ccc1COc1nc2cc(Cc3nc4cc(-c5nnc(C(F)(F)F)[nH]5)ncc4n3C[C@@H]3CCO3)ccc2cc1C(F)(F)F [Compound 98, 2-[(4-chloro-2-fluorophenyl)methoxy]-7-[(3-{[(2S)-oxetan-2-yl]methyl}-6-[5-(trifluoromethyl)-4H-1,2,4-triazol-3-yl]-3H-imidazo[4,5-c]pyridin-2-yl)methyl]-3-(trifluoromethyl)quinoline] | < 1 nM
2 | Fc1cc(Cl)ccc1COc1nc2c(cc1C(F)(F)F)CCN(Cc1nc3cc(-c4nnc(C(F)(F)F)[nH]4)ncc3n1C[C@H]1CCOC1)C2 [Compound 76, 2-[(4-chloro-2-fluorophenyl)methoxy]-7-[(3-{[(3R)-oxolan-3-yl]methyl}-6-[5-(trifluoromethyl)-4H-1,2,4-triazol-3-yl]-3H-imidazo[4,5-c]pyridin-2-yl)methyl]-3-(trifluoromethyl)-5,6,7,8-tetrahydro-1,7-naphthyridine] | 1 to 300 nM
3 | CC(c1nc2cc(-c3nnc(C(F)(F)F)[nH]3)ncc2n1C[C@@H]1CCO1)N1CCc2cc(C(F)(F)F)c(OCc3ccc(Cl)cc3F)nc2C1 (stereo partly drawn) [Compound 82, 2-[(4-chloro-2-fluorophenyl)methoxy]-7-[1-(3-{[(2S)-oxetan-2-yl]methyl}-6-[5-(trifluoromethyl)-4H-1,2,4-triazol-3-yl]-3H-imidazo[4,5-c]pyridin-2-yl)ethyl]-3-(trifluoromethyl)-5,6,7,8-tetrahydro-1,7-naphthyridine] | < 1 nM
4 | Cc1cc2c(nc1NCc1c(F)cc(Cl)cc1F)CN(Cc1nc3cc(-c4noc(=O)[nH]4)ncc3n1C[C@@H]1CCO1)CC2 [Compound 35, 3-{2-[(2-{[(4-chloro-2,6-difluorophenyl)methyl]amino}-3-methyl-5,6,7,8-tetrahydro-1,7-naphthyridin-7-yl)methyl]-3-{[(2S)-oxetan-2-yl]methyl}-3H-imidazo[4,5-c]pyridin-6-yl}-4,5-dihydro-1,2,4-oxadiazol-5-one] | < 1 nM
5 | Cc1nnc(-c2cnc3c(c2)nc(CN2CCc4cc(C(F)(F)F)c(OCc5ccc(Cl)cc5F)nc4C2)n3C[C@@H]2CCO2)[nH]1 [Compound 67, 2-[(4-chloro-2-fluorophenyl)methoxy]-7-{[6-(5-methyl-4H-1,2,4-triazol-3-yl)-3-{[(2S)-oxetan-2-yl]methyl}-3H-imidazo[4,5-b]pyridin-2-yl]methyl}-3-(trifluoromethyl)-5,6,7,8-tetrahydro-1,7-naphthyridine] | 1 to 300 nM
6 | O=c1[nH]c(-c2ccc3nc(CN4CCc5ccc(OCc6ccc(Cl)cc6F)nc5C4)n(C[C@@H]4CCO4)c3c2)no1 [Compound 2, (S)-3-(2-((2-((4-chloro-2-fluorobenzyl)oxy)-5,8-dihydro-1,7-naphthyridin-7(6H)-yl)methyl)-1-(oxetan-2-ylmethyl)-1H-benzo[d]imidazol-6-yl)-1,2,4-oxadiazol-5(4H)-one] | 1 to 300 nM
7 | CNC(=O)c1cc2nc(CN3CCc4cc(C(F)(F)F)c(OCc5ccc(Cl)cc5F)nc4C3)n(C[C@@H]3CCO3)c2cn1 [Compound 24, 2-({2-[(4-chloro-2-fluorophenyl)methoxy]-3-(trifluoromethyl)-5,6,7,8-tetrahydro-1,7-naphthyridin-7-yl}methyl)-N-methyl-3-{[(2S)-oxetan-2-yl]methyl}-3H-imidazo[4,5-c]pyridine-6-carboxamide] | 1 to 300 nM
8 | Fc1cc(Cl)ccc1COc1nc2c(cc1C(F)(F)F)CCN(Cc1nc3cc(-c4nnn[nH]4)ncc3n1C[C@@H]1CCO1)C2 [Compound 14, 2-[(4-chloro-2-fluorophenyl)methoxy]-7-[(3-{[(2S)-oxetan-2-yl]methyl}-6-(1H-1,2,3,4-tetrazol-5-yl)-3H-imidazo[4,5-c]pyridin-2-yl)methyl]-3-(trifluoromethyl)-5,6,7,8-tetrahydro-1,7-naphthyridine] | < 1 nM
9 | Cc1ccc(COc2nc3c(cc2C(F)(F)F)CCN(Cc2nc4cc(-c5noc(=O)[nH]5)ncc4n2C[C@@H]2CCO2)C3)c(Cl)c1 [Compound 33, 3-[2-({2-[(2-chloro-4-methylphenyl)methoxy]-3-(trifluoromethyl)-5,6,7,8-tetrahydro-1,7-naphthyridin-7-yl}methyl)-3-{1[(2S)-oxetan-2-yl]methyl}-3H-imidazo[4,5-c]pyridin-6-yl]-4,5-dihydro-1,2,4-oxadiazol-5-one] | < 1 nM

Further lines, results first:

Row | EC50 | SMILES
10 | < 1 nM | Cc1nnc(-c2cc3nc(CN4CCc5cc(C(F)(F)F)c(OCc6ccc(Cl)cc6)nc5C4)n(C[C@@H]4CCO4)c3cn2)[nH]1 [Compound 61, 2-[(4-chlorophenyl)methoxy]-7-{[6-(5-methyl-4H-1,2,4-triazol-3-yl)-3-{1[(2S)-oxetan-2-yl]methyl}-3H-imidazo[4,5-c]pyridin-2-yl]methyl}-3-(trifluoromethyl)-5,6,7,8-tetrahydro-1,7-naphthyridine]
11 | 1 to 300 nM | O=c1[nH]c(-c2ccc3c(nc(CN4CCc5cc(C(F)(F)F)c(OCc6c(F)cc(Cl)cc6F)nc5C4)n3C[C@@H]3CCO3)c2F)no1 [Compound 48, 3-[2-({2-[(4-chloro-2,6-difluorophenyl)methoxy]-3-(trifluoromethyl)-5,6,7,8-tetrahydro-1,7-naphthyridin-7-yl}methyl)-4-fluoro-1-{[(2S)-oxetan-2-yl]methyl}-1H-1,3-benzodiazol-5-yl]-4,5-dihydro-1,2,4-oxadiazol-5-one]
12 | < 1 nM | N#Cc1cc2c(nc1OCc1c(F)cc(Cl)cc1F)CN(Cc1nc3cc(-c4nnc(C(F)(F)F)[nH]4)ncc3n1C[C@@H]1CCO1)CC2 [Compound 71, 2-[(4-chloro-2,6-difluorophenyl)methoxy]-7-[(3-{[(2S)-oxetan-2-yl]methyl}-6-[5-(trifluoromethyl)-4H-1,2,4-triazol-3-yl]-3H-imidazo[4,5-c]pyridin-2-yl)methyl]-5,6,7,8-tetrahydro-1,7-naphthyridine-3-carbonitrile]
13 | < 1 nM | Cc1cc2c(nc1OCc1c(F)cc(Cl)cc1F)CN(Cc1nc3cc(-c4nnc(C(F)(F)F)[nH]4)ncc3n1C[C@@H]1CCO1)CC2 [Compound 55, 2-[(4-chloro-2,6-difluorophenyl)methoxy]-3-methyl-7-[(3-{1[(2S)-oxetan-2-yl]methyl}-6-[5-(trifluoromethyl)-4H-1,2,4-triazol-3-yl]-3H-imidazo[4,5-c]pyridin-2-yl)methyl]-5,6,7,8-tetrahydro-1,7-naphthyridine]
14 | > 300 nM | Cc1cc(-c2nnc(C(F)(F)F)[nH]2)cnc1CN1CCc2cc(Cl)c(OCc3ccc(Cl)cc3F)nc2C1 [Compound 12, 3-chloro-2-[(4-chloro-2-fluorophenyl)methoxy]-7-({3-methyl-5-[5-(trifluoromethyl)-4H-1,2,4-triazol-3-yl]pyridin-2-yl}methyl)-5,6,7,8-tetrahydro-1,7-naphthyridine]
15 | < 1 nM | O=c1[nH]c(-c2cc3nc(CN4CCc5cc(C(F)(F)F)c(NCc6c(F)cc(Cl)cc6F)nc5C4)n(C[C@@H]4CCO4)c3cn2)no1 [Compound 105, 3-{2-[(2-{[(4-chloro-2,6-difluorophenyl)methyl]amino}-3-(trifluoromethyl)-5,6,7,8-tetrahydro-1,7-naphthyridin-7-yl)methyl]-3-{[(2S)-oxetan-2-yl]methyl}-3H-imidazo[4,5-c]pyridin-6-yl}-4,5-dihydro-1,2,4-oxadiazol-5-one]
16 | < 1 nM | O=c1[nH]nc(-c2cc3nc(CN4CCc5cc(C(F)(F)F)c(OCc6ccc(Cl)cc6F)nc5C4)n(C[C@@H]4CCO4)c3cn2)[nH]1 [Compound 97, 3-[2-({2-[(4-chloro-2-fluorophenyl)methoxy]-3-(trifluoromethyl)-5,6,7,8-tetrahydro-1,7-naphthyridin-7-yl}methyl)-3-{[(2S)-oxetan-2-yl]methyl}-3H-imidazo[4,5-c]pyridin-6-yl]-4,5-dihydro-1H-1,2,4-triazol-5-one]
17 | < 1 nM | Fc1cc(Cl)cc(F)c1CNc1nc2c(cc1C(F)(F)F)CCN(Cc1nc3cc(-c4nnc(C5CC5)[nH]4)ncc3n1C[C@@H]1CCO1)C2 [Compound 110, N-[(4-chloro-2,6-difluorophenyl)methyl]-7-{[6-(5-cyclopropyl-4H-1,2,4-triazol-3-yl)-3-{[(2S)-oxetan-2-yl]methyl}-3H-imidazo[4,5-c]pyridin-2-yl]methyl}-3-(trifluoromethyl)-5,6,7,8-tetrahydro-1,7-naphthyridin-2-amine]
18 | < 1 nM | O=c1[nH]c(-c2cc3nc(CN4CCc5cc(C(F)(F)F)c(NCc6ccc(Cl)cc6F)nc5C4)n(C[C@@H]4CCO4)c3cn2)no1 [Compound 104, 3-{2-[(2-{[(4-chloro-2-fluorophenyl)methyl]amino}-3-(trifluoromethyl)-5,6,7,8-tetrahydro-1,7-naphthyridin-7-yl)methyl]-3-{[(2S)-oxetan-2-yl]methyl}-3H-imidazo[4,5-c]pyridin-6-yl}-4,5-dihydro-1,2,4-oxadiazol-5-one]
19 | < 1 nM | CC(c1nc2cc(-c3nnc(C(F)(F)F)[nH]3)ncc2n1C[C@@H]1CCO1)N1CCc2cc(C(F)(F)F)c(OCc3c(F)cc(Cl)cc3F)nc2C1 (stereo partly drawn) [Compound 83, 2-[(4-chloro-2,6-difluorophenyl)methoxy]-7-[1-(3-{1[(2S)-oxetan-2-yl]methyl}-6-[5-(trifluoromethyl)-4H-1,2,4-triazol-3-yl]-3H-imidazo[4,5-c]pyridin-2-yl)ethyl]-3-(trifluoromethyl)-5,6,7,8-tetrahydro-1,7-naphthyridine]
20 | 1 to 300 nM | O=C(O)c1ccc2c(nc(CN3CCc4cc(C(F)(F)F)c(OCc5ccc(Cl)cc5F)nc4C3)n2C[C@@H]2CCO2)c1F [Compound 27, 2-({2-[(4-chloro-2-fluorophenyl)methoxy]-3-(trifluoromethyl)-5,6,7,8-tetrahydro-1,7-naphthyridin-7-yl}methyl)-4-fluoro-1-{[(2S)-oxetan-2-yl]methyl}-1H-1,3-benzodiazole-5-carboxylic acid]
21 | < 1 nM | O=c1[nH]c(-c2cc3c(nc(CN4CCc5cc(C(F)(F)F)c(OCc6ccc(Cl)cc6F)nc5C4)n3C[C@@H]3CCO3)s2)no1 [Compound 58, 3-[2-({2-[(4-chloro-2-fluorophenyl)methoxy]-3-(trifluoromethyl)-5,6,7,8-tetrahydro-1,7-naphthyridin-7-yl}methyl)-1-{[(2S)-oxetan-2-yl]methyl}-1H-thieno[2,3-d]imidazol-5-yl]-4,5-dihydro-1,2,4-oxadiazol-5-one]
